Test systems include HOP-62 NSCLC; T-47D breast; M14 melanoma; HS 578T breast; UACC-257 melanoma; SR leukemia.
Holding throughout (assay): inhibition of tumour cell growth, NCI panel, 48 h

Results on 14 molecules are retold here after PubChem BioAssay (NCI).

SMILES strings stand for the structures.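 Values below derive from 48-hour exposures of cells grown in 96-well plates, with endpoints linearly interpolated between the two concentrations bracketing the appropriate inhibition level. At the GI50, growth is halved. TGI: total growth inhibition.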 Where only a bound is given, the exact number is not on record here.

As for `COC(=O)C1=C(OC(=O)c2ccc(Cl)cc2)C(C(=O)OC)[C@@]2(O)[C@@H](C(=O)OC)C(c3ccccc3C(F)(F)F)C[C@@H]1[C@@H]2C(=O)OC` (some centres not stated), the GI50 in the experiment with HOP-62 NSCLC was 9.24 µM; in the experiment with T-47D breast, 4.82 µM; with M14 melanoma it was 3.16 µM; in the experiment on HS 578T breast, 3.96 µM; in the experiment with UACC-257 melanoma, 2760 nM; with SR leukemia, 3.94 µM. For the same molecule, the TGI was greater than 100 µM with HOP-62 NSCLC; greater than 100 µM with T-47D breast; 13 µM in the experiment on M14 melanoma; 24.2 µM with HS 578T breast; 8.32 µM in the experiment with UACC-257 melanoma; greater than 100 µM in the experiment on SR leukemia.
Turning to `Fc1cccc(COc2ccc(Nc3ncnc4sc(-c5ccco5)cc34)cc2Cl)c1`, the GI50 with HOP-62 NSCLC was greater than 25 µM; in the experiment with T-47D breast it was greater than 14.5 µM; with M14 melanoma, greater than 25 µM; with HS 578T breast, greater than 25 µM; in the experiment with UACC-257 melanoma, greater than 25000 nM; in the experiment on SR leukemia, greater than 25 µM. Further, the TGI in the experiment with HOP-62 NSCLC, with T-47D breast, in the experiment on M14 melanoma, with HS 578T breast, with UACC-257 melanoma and in the experiment with SR leukemia was greater than 25 µM in each case.
Turning to `Cc1cc2c(cc1C)NC1=C(N2)OC(c2c[nH]c3ccc(COc4ccccc4)cc23)C1=O` (configuration not stated), the TGI is 49.8 µM with HOP-62 NSCLC; greater than 100 µM with T-47D breast; greater than 100 µM with M14 melanoma; greater than 100 µM in the experiment on HS 578T breast; greater than 100 µM in the experiment with UACC-257 melanoma; greater than 100 µM with SR leukemia.
As for `COc1ccc(-c2cc(-c3ccc(Cl)cc3)c(C#N)c(=O)n2CCCCC(=O)Nc2ccccc2N)cc1`, the GI50 was 12.7 µM in the experiment on HOP-62 NSCLC; 4.44 µM in the experiment with T-47D breast; 2.58 µM in the experiment with M14 melanoma; 8.18 µM in the experiment with HS 578T breast; 4480 nM with UACC-257 melanoma; 1.09 µM with SR leukemia. Besides, the TGI in the experiment with HOP-62 NSCLC was greater than 100 µM; in the experiment with T-47D breast, greater than 100 µM; in the experiment on M14 melanoma, 8.14 µM; in the experiment on HS 578T breast it was 52.4 µM; with UACC-257 melanoma, greater than 100 µM; with SR leukemia it was greater than 100 µM.
For the molecule `COc1cc(-c2oc3ccccc3c(=O)c2O)cc(OC)c1OC`, the TGI is 71.1 µM with HOP-62 NSCLC; greater than 100 µM with T-47D breast; greater than 100 µM with M14 melanoma; 98.9 µM in the experiment on HS 578T breast; greater than 100 µM in the experiment with UACC-257 melanoma; greater than 24.8 µM in the experiment with SR leukemia.
On to `Nc1cc2c3c(cccc3c1)NC2=O`, for which the TGI with HOP-62 NSCLC, in the experiment on T-47D breast, in the experiment with M14 melanoma, with HS 578T breast, in the experiment with UACC-257 melanoma and in the experiment with SR leukemia was greater than 100 µM each time.
Turning to `CC(C)c1ccc2nc3ccc(C(=O)NCCN(C)C)cn3c(=O)c2c1`, the TGI in the experiment on HOP-62 NSCLC was 31.4 µM; in the experiment on T-47D breast, 38.4 µM; in the experiment on M14 melanoma it was 28.3 µM; in the experiment with HS 578T breast it was 35.6 µM; in the experiment with UACC-257 melanoma, 27.8 µM; in the experiment on SR leukemia it was 63 µM.
For `CCN(c1ccc(CO)c(Cl)c1)C(C)c1ccc(F)cc1` (configuration not stated), the GI50 is 16.2 µM with HOP-62 NSCLC; 4.22 µM in the experiment on T-47D breast; 17.6 µM with M14 melanoma; 16.9 µM in the experiment on HS 578T breast; 2800 nM in the experiment on UACC-257 melanoma; 19.8 µM in the experiment on SR leukemia. The TGI in the experiment with HOP-62 NSCLC worked out at 30.2 µM; in the experiment on T-47D breast, 18.2 µM; in the experiment on M14 melanoma, 33.8 µM; in the experiment with HS 578T breast, 40.2 µM; in the experiment with UACC-257 melanoma, 12.8 µM; in the experiment on SR leukemia it was 43.1 µM.
For `C#C[C@]1(O)CC[C@H]2[C@@H]3CC=C4c5nc(Nc6ccccn6)sc5CC[C@]4(C)[C@H]3CC[C@@]21C`, the GI50 was 1.11 µM with HOP-62 NSCLC; 1.81 µM in the experiment on T-47D breast; 1.14 µM in the experiment with M14 melanoma; 0.421 µM in the experiment with HS 578T breast; 778 nM in the experiment with UACC-257 melanoma; 0.542 µM in the experiment on SR leukemia. Also, the TGI with HOP-62 NSCLC stood at 2.95 µM; with T-47D breast it was 5.98 µM; in the experiment on M14 melanoma it was 3.21 µM; in the experiment with HS 578T breast, 2.4 µM; with UACC-257 melanoma, 2.55 µM; in the experiment on SR leukemia, 3.24 µM.
Consider `COc1ccc2nc(-c3ccccc3)cc(Nc3cccc(/C(C)=N\O)c3)c2c1`, for which the GI50 in the experiment on HOP-62 NSCLC was 1.84 µM; in the experiment with T-47D breast, 4.01 µM; with M14 melanoma, 5.04 µM; with HS 578T breast it was 9.05 µM; in the experiment with UACC-257 melanoma, 19400 nM; with SR leukemia, 3.36 µM. The TGI was 4.27 µM with HOP-62 NSCLC; greater than 100 µM with T-47D breast; greater than 100 µM in the experiment with M14 melanoma; 79.2 µM in the experiment on HS 578T breast; greater than 100 µM with UACC-257 melanoma; greater than 100 µM in the experiment with SR leukemia.
Consider `C/C(=N\O)c1ccc(Nc2cc(-n3nnc4ccccc43)nc3ccccc23)cc1`, for which the GI50 with HOP-62 NSCLC is 6.14 µM; in the experiment on T-47D breast it was 8.23 µM; with M14 melanoma it was 5 µM; in the experiment with HS 578T breast, 6.29 µM; in the experiment with UACC-257 melanoma it was 17500 nM; in the experiment with SR leukemia it was 18.7 µM. The TGI was 21.4 µM in the experiment with HOP-62 NSCLC; greater than 34.7 µM with T-47D breast; 14.9 µM in the experiment on M14 melanoma; 20.4 µM with HS 578T breast; greater than 53.7 µM with UACC-257 melanoma; 74.9 µM with SR leukemia.
Take `CC1(C)CCC(C)(C)c2cc(C(=O)Nc3ccc(C(=O)O)cc3)ccc21`: the TGI is 37.5 µM with HOP-62 NSCLC; greater than 79.4 µM in the experiment with T-47D breast; 51.1 µM with M14 melanoma; greater than 46.8 µM in the experiment on HS 578T breast; greater than 67.7 µM in the experiment on UACC-257 melanoma; greater than 81.9 µM with SR leukemia.
With `CC1(C)O[C@H]2OC3CCC(=O)CC3(O)[C@H]2O1` (some centres not stated), the TGI with HOP-62 NSCLC, in the experiment with T-47D breast, in the experiment with M14 melanoma, in the experiment with HS 578T breast, with UACC-257 melanoma and with SR leukemia was greater than 100 µM in each case.
Consider `Cc1ccc(C(=O)Nc2ccc(CN3CCN(C)CC3)c(C(F)(F)F)c2)cc1C#Cc1cnc(N)c2ccc(F)cc12`, for which the GI50 in the experiment on HOP-62 NSCLC was 0.753 µM; with T-47D breast, 0.77 µM; in the experiment on M14 melanoma, 0.0881 µM; in the experiment with HS 578T breast, 0.301 µM; in the experiment on UACC-257 melanoma, 594 nM; in the experiment with SR leukemia it was 0.262 µM. In addition, the TGI was 3.44 µM with HOP-62 NSCLC; 3.68 µM with T-47D breast; 0.441 µM in the experiment with M14 melanoma; 1.37 µM with HS 578T breast; 1.95 µM with UACC-257 melanoma; 1.3 µM in the experiment on SR leukemia.
